Measured values as given in patent publication US8642629B2, “Naphthylacetic acids” (Hoffmann-La Roche Inc., priority 2008, dated 2014).

How the values were obtained:
[1] = target: T1, human CRTH2 (Homo sapiens, UniProt Q9Y5Y4); assay: Calcium Flux Assay Using Fluorometric Imaging Plate Reader (FLIPR); assay type: cell-based; settings: CHO-K1 cells transfected with G-alpha 16 and human CRTH2; inhibition of ligand (DK-PGD2) response
T1 construct: expressed in transfected cells; host or cells: CHO-K1
T1 sequence (Q9Y5Y4 1-395): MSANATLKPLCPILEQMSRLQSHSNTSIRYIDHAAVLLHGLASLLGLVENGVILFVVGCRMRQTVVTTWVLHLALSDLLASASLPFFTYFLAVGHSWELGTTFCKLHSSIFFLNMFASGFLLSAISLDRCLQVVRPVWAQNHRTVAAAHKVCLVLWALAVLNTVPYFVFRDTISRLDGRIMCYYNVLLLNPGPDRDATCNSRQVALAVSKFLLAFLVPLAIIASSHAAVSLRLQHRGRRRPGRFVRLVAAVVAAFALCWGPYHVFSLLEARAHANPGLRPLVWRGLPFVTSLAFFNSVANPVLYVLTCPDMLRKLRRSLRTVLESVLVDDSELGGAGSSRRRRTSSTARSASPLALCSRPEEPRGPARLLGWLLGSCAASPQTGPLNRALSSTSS
Experimental: CHO-K1 cells previously transfected with G-alpha 16 were subsequently transfected with the human CRTH2 receptor and the neomycin resistance gene. Following selection in 800 μg/mL G418 (geneticin), individual clones were assayed for their receptor expression based on staining with an anti human CRTH2 IgG, followed by assaying for their response to 13,14-dihydro-15-keto Prostaglandin D2 (DK-PDG2) (ligand) in the Ca^2+ Flux assay. Positive clones were then cloned by limiting dilution cloning. […] Cells were harvested with trypsin-EDTA (trypsin-ethylenediaminetetraacetic acid) and counted using ViaCount® reagent (from Guava Technologies, Inc. which contains two DNA-binding dyes that enable the reagent user to distinguish between viable and non-viable cells). […]
After incubation, both the cell and “assay plate” plates were brought to the fluorometric imaging plate reader (FLIPR®) and 20 μL of the diluted compounds were transferred to the cell plates by the FLIPR®. […] During the assay, fluorescence readings were taken simultaneously from all 384 wells of the cell plate every 1.5 seconds. Five readings were taken to establish a stable baseline, then 20 μL of sample was rapidly (30 μL/sec) and simultaneously added to each well of the cell plate. The fluorescence was continuously monitored before, during and after sample addition for a total elapsed time of 100 seconds. […]

[2] = target: T1, human CRTH2; assay: Human CRTH2 Receptor Binding Assay (whole cell, [3H]ramatroban competition); settings: CHO-K1 cells expressing human CRTH2 and G-alpha16; 20 nM [3H]ramatroban; 1 hour, room temperature
Outline: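 Whole CHO-K1 cells stably expressing human CRTH2 and G-alpha16 were incubated with 20 nM [3H]ramatroban and compound for 1 h at room temperature in PBS with 10 mM MgCl2 and 0.06% BSA, then filtered and counted. Non-specific binding was defined with 10 μM 15(R)-15-methyl PGD2, and IC50 was fitted by 4-parameter logistic from 7 concentrations.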

Row | IC50 [1] [nM] | IC50 [2] [nM] | SMILES
1 | 5000 | 2.3 | CCS(=O)(=O)c1ccc(Oc2cc(CC(=O)O)cc3ccc(F)cc23)cc1 [Example 1-1, [4-(4-ethanesulfonyl-phenoxy)-6-fluoro-naphthalen-2-yl]-acetic acid]
2 | 4200 | 130 | CCS(=O)(=O)c1ccc(Oc2c(C)c(CCC(=O)O)cc3ccc(F)cc23)cc1 [Example 7-1, 3-[4-(4-ethanesulfonyl-phenoxy)-6-fluoro-3-methyl-naphthalen-2-yl]-propionic acid]
